Data on 32 compounds can be found in patent US20090105266A1, “Organic compounds” (priority 2007, published 2009).

This assay has as its target T1, mGluR5 (Homo sapiens, UniProt P41594).
T1 construct: expressed in transfected cells
Description: inhibition of the glutamate (agonist) induced elevation of the inositol phosphate turnover. It counts as cell-based. As to conditions: inhibition of glutamate induced elevation of inositol phosphate turnover at 0.1 μM. The source says: This can be determined in vitro for example at recombinant human metabotropic glutamate receptors, especially PLC-coupled subtypes thereof such as mGluR5, using different procedures like, for example, measurement of the inhibition of the agonist induced elevation of intracellular Ca^2+ concentration in accordance with L. P. Daggett et al., Neuropharm. Vol. 34, pages 871-886 (1995), P. J. Flor et al., J. Neurochem. Vol. 67, pages 58-63 (1996) or by determination to what extent the agonist induced elevation of the inositol phosphate turnover is inhibited as described by T. Knoepfel et al., Eur. J. Pharmacol. Vol. 288, pages 389-392 (1994), L. P. Daggett et al., Neuropharm. Vol. 67, pages 58-63 (1996) and references cited therein. Isolation and expression of human mGluR subtypes are described in U.S. Pat. No. 5,521,297. Selected agents of the invention show IC50 values for the inhibition of the agonist (e.g. glutamate or quisqualate) induced elevation of intracellular Ca2+ concentration or the agonist (e.g. glutamate or quisqualate) induced inositol phosphate turnover, measured in recombinant cells expressing hmGluR^5a of about 0.1 nM to about 50 μM.
Activity of compounds of the present invention was examined by determination to what extent the agonist induced elevation of the inositol phosphate turnover is inhibited as described by T. Knoepfel et al., Eur. J. Pharmacol. Vol. 288, pages 389-392 (1994), L. P. Daggett et al., Neuropharm. Vol. 67, pages 58-63 (1996) and references cited therein.
The table below represents percentages of inhibition of the glutamate induced elevation of the inositol phosphate turnover at a concentration of 0.1 μM.

T1 sequence (P41594 21-1180 isoform P41594-2 limits assumed): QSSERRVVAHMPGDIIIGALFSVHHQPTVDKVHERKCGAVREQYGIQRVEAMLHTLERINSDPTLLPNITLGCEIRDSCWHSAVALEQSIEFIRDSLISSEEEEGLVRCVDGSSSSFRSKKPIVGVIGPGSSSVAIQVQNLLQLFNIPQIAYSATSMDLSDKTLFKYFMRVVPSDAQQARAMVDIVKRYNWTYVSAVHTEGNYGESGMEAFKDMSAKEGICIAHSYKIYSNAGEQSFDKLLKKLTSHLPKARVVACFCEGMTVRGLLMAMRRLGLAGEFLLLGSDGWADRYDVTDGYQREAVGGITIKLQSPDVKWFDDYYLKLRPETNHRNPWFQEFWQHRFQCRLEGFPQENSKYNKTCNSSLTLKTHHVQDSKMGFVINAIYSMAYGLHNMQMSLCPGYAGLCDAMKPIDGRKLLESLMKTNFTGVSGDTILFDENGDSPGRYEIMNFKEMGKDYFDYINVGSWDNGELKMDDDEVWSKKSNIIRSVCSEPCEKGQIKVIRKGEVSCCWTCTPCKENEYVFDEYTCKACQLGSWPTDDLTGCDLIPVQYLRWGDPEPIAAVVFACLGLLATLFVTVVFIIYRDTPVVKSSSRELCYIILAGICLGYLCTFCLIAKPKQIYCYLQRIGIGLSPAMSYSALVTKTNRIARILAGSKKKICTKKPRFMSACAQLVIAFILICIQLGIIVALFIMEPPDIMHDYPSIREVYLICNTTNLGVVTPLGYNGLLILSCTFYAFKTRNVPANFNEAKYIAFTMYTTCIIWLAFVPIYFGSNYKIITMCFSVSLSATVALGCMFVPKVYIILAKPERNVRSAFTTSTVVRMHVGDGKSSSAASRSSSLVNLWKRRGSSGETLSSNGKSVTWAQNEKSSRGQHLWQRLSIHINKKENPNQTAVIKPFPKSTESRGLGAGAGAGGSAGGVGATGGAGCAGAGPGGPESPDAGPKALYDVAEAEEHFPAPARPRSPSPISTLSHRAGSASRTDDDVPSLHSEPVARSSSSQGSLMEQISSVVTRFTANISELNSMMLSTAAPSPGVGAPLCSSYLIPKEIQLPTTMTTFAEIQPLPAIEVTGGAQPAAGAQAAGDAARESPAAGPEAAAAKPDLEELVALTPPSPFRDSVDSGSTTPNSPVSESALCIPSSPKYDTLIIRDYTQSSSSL

As for `CCCn1c(-c2cnc(Nc3ccc(N(C)C)nc3)c(Cl)c2)nc2ccc(F)cc21` [Example 68, N-5-[3-Chloro-5-(6-fluoro-1-propyl-1H-benzoimidazol-2-yl)-pyridin-2-yl]-N-2,N-2-dimethyl-pyridine-2,5-diamine], the “mGluR5-activity in [%] inhibition at 0.1 μM” value was determined as 43%. The same measure, in the same setting: for `CCCn1c(-c2cnc(Nc3ccc(N(C)C)nc3)c(Cl)c2)nc2ccccc21` [Example 69, N-5-[3-Chloro-5-(1-propyl-1H-benzoimidazol-2-yl)-pyridin-2-yl]-N2,N-2-dimethyl-pyridine-2,5-diamine] the value was 32%; for `CCCn1c(-c2cnc(Nc3ccc(N(C)C)nc3)c(Cl)c2)nc2cccc(Cl)c21` [Example 70, N-5-[3-Chloro-5-(7-chloro-1-propyl-1H-benzoimidazol-2-yl)-pyridin-2-yl]-N2,N-2-dimethyl-pyridine-2,5-diamine], 90%. As a reminder, the inhibition is the relative decrease from the control value, in per cent. On to `CCCn1c(-c2cnc(Nc3ccc(NC(C)=O)nc3)c(Cl)c2)nc2ccc(F)cc21` [Example 71, N-{5-[3-Chloro-5-(6-fluoro-1-propyl-1H-benzoimidazol-2-yl)-pyridin-2-ylamino]-pyridin-2-yl}-acetamide], for which the inhibition at 0.1 µM amounted to 20%. For `CCCn1c(-c2cnc(Nc3ccc(N)nc3)c(Cl)c2)nc2ccc(F)cc21` [Example 71b, N-5-[3-Chloro-5-(6-fluoro-1-propyl-1H-benzoimidazol-2-yl)-pyridin-2-yl]-pyridine-2,5-diamine], the “mGluR5-activity in [%] inhibition at 0.1 μM” value was determined as 100%. With `CCCn1c(-c2cnc(Nc3cnccn3)c(Cl)c2)nc2cccc(Cl)c21` [Example 72, [3-Chloro-5-(7-chloro-1-propyl-1H-benzoimidazol-2-yl)-pyridin-2-yl]-pyrazin-2-yl-amine], the inhibition at 0.1 µM came out at 96%. `CCCn1c(-c2cnc(Nc3cc(C)no3)c(Cl)c2)nc2cccc(Cl)c21` [Example 73, [3-Chloro-5-(7-chloro-1-propyl-1H-benzoimidazol-2-yl)-pyridin-2-yl]-(3-methyl-isoxazol-5-yl)-amine]: the inhibition at 0.1 µM was found to be 98%.

In the case of `CCCn1c(-c2cnc(Nc3ccc(OC)nc3)c(Cl)c2)nc2cccc(Cl)c21` [Example 74, [3-Chloro-5-(7-chloro-1-propyl-1H-benzoimidazol-2-yl)-pyridin-2-yl]-(6-methoxy-pyridin-3-yl)-amine], the inhibition at 0.1 µM stood at 99%. On to `CCCn1c(-c2cnc(Nc3ccc(OC)cc3)c(Cl)c2)nc2cccc(Cl)c21` [Example 75, [3-Chloro-5-(7-chloro-1-propyl-1H-benzoimidazol-2-yl)-pyridin-2-yl]-(4-methoxy-phenyl)-amine], for which the inhibition at 0.1 µM was found to be 99%. As for `CCCn1c(-c2cnc(Nc3ccc(C#N)nc3)c(Cl)c2)nc2cccc(Cl)c21` [Example 75b, 5-[3-Chloro-5-(7-chloro-1-propyl-1H-benzoimidazol-2-yl)-pyridin-2-ylamino]-pyridine-2-carbonitrile], the inhibition at 0.1 µM came to 99%. Turning to `CCCn1c(-c2cnc(Nc3ccc(NC(C)=O)nc3)c(Cl)c2)nc2cccc(Cl)c21` [Example 75c, N-{5-[3-Chloro-5-(7-chloro-1-propyl-1H-benzoimidazol-2-yl)-pyridin-2-ylamino]-pyridin-2-yl}-acetamide], the inhibition at 0.1 µM came out at 100%. For `CCCn1c(-c2cnc(Nc3ccc(C(=O)OC)nc3)c(Cl)c2)nc2cccc(Cl)c21` [Example 75d, 5-[3-Chloro-5-(7-chloro-1-propyl-1H-benzoimidazol-2-yl)-pyridin-2-ylamino]-pyridine-2-carboxylic acid methyl ester], the inhibition at 0.1 µM is 100%. Consider `CCCn1c(-c2cnc(Nc3ccc(N)nc3)c(Cl)c2)nc2cccc(Cl)c21` [Example 75e, N-5-[3-Chloro-5-(7-chloro-1-propyl-1H-benzoimidazol-2-yl)-pyridin-2-yl]-pyridine-2,5-diamine], for which the “mGluR5-activity in [%] inhibition at 0.1 μM” value came to 100%. Turning to `CCCn1c(-c2cnc(Nc3ccc(CO)nc3)c(Cl)c2)nc2cccc(Cl)c21` [Example 75f, {5-[3-Chloro-5-(7-chloro-1-propyl-1H-benzoimidazol-2-yl)-pyridin-2-ylamino]-pyridin-2-yl}-methanol], the inhibition at 0.1 µM was 92%. The same measure, in the same setting: for `CCCn1c(-c2ccc(Nc3ccc(C)nc3)cc2)nc2cccc(Cl)c21` [Example 78, [4-(7-Chloro-1-propyl-1H-benzoimidazol-2-yl)-phenyl]-(6-methyl-pyridin-3-yl)-amine] the value was 99%. On the same count and under the same terms, then `CCCn1c(-c2ccc(Nc3ccc(C)nc3)cc2)nc2ccc(F)cc21` [Example 79, [4-(6-Fluoro-1-propyl-1H-benzoimidazol-2-yl)-phenyl]-(6-methyl-pyridin-3-yl)-amine], with 65%; and `CCCn1c(-c2ccc(Nc3ccc(C)cc3)cc2)nc2cccc(Cl)c21` [Example 80, [4-(7-Chloro-1-propyl-1H-benzoimidazol-2-yl)-phenyl]-p-tolyl-amine], with 90%.

Turning to `CCCn1c(-c2ccc(Nc3ccc(Cl)cc3)cc2)nc2cccc(Cl)c21` [Example 81, (4-Chloro-phenyl)-[4-(7-chloro-1-propyl-1H-benzoimidazol-2-yl)-phenyl]-amine], the inhibition at 0.1 µM turned out to be 96%.

On to `CCCn1c(-c2ccc(Nc3ccc(OC)cc3)cc2)nc2cccc(Cl)c21` [Example 82, [4-(7-Chloro-1-propyl-1H-benzoimidazol-2-yl)-phenyl]-(4-methoxy-phenyl)-amine], for which the inhibition at 0.1 µM was 88%. Same read-out and setting: then `CCCn1c(-c2ccc(Nc3ccc(C)cc3)cc2)nc2ccc(F)cc21` [Example 83, [4-(6-Fluoro-1-propyl-1H-benzoimidazol-2-yl)-phenyl]-p-tolyl-amine], with 52%; and `CCCn1c(-c2ccc(Nc3ccc(OC)cc3)nn2)nc2cccc(Cl)c21` [Example 86, [6-(7-Chloro-1-propyl-1H-benzoimidazol-2-yl)-pyridazin-3-yl]-(4-methoxy-phenyl)-amine], with 60%. The same measure, in the same setting: for `CCCn1c(-c2ccc(Nc3ccc(Cl)cc3)nn2)nc2cccc(Cl)c21` [Example 87, (4-Chloro-phenyl)-[6-(7-chloro-1-propyl-1H-benzoimidazol-2-yl)-pyridazin-3-yl]-amine] the value was 47%; for `CCCn1c(-c2ccc(Nc3ccc(C)nc3)nn2)nc2cccc(Cl)c21` [Example 88, [6-(7-Chloro-1-propyl-1H-benzoimidazol-2-yl)-pyridazin-3-yl]-(6-methyl-pyridin-3-yl)-amine], 97%. Turning to `CCCn1c(-c2cnc(Nc3ccc(OC)cc3)nc2)nc2cccc(Cl)c21` [Example 90, [5-(7-Chloro-1-propyl-1H-benzoimidazol-2-yl)-pyrimidin-2-yl]-(4-methoxy-phenyl)-amine], the inhibition at 0.1 µM was found to be 102%.

Turning to `CCCn1c(-c2cnc(Nc3ccc(Cl)cc3)nc2)nc2cccc(Cl)c21` [Example 91, (4-Chloro-phenyl)-[5-(7-chloro-1-propyl-1H-benzoimidazol-2-yl)-pyrimidin-2-yl]-amine], the inhibition at 0.1 µM is 100%. The same measure, in the same setting: for `CCCn1c(-c2cnc(Nc3ccc(C)nc3)nc2)nc2cccc(Cl)c21` [Example 92, [5-(7-Chloro-1-propyl-1H-benzoimidazol-2-yl)-pyrimidin-2-yl]-(6-methyl-pyridin-3-yl)-amine] the value was 99%; for `CCCn1c(-c2cnc(Nc3ccc(OC)cc3)nc2)nc2ccc(F)cc21` [Example 93, [5-(6-Fluoro-1-propyl-1H-benzoimidazol-2-yl)-pyrimidin-2-yl]-(4-methoxy-phenyl)-amine], 34%; for `CCCn1c(-c2ccc(Nc3ccc(C)nc3)c(Cl)c2)nc2ccccc21` [Example 94, [2-Chloro-4-(1-propyl-1H-benzoimidazol-2-yl)-phenyl]-(6-methyl-pyridin-3-yl)-amine], 97%.

For the compound `CCCn1c(-c2ccc(Nc3ccc(C)cc3)c(Cl)c2)nc2cccc(Cl)c21` [Example 95, [2-Chloro-4-(7-chloro-1-propyl-1H-benzoimidazol-2-yl)-phenyl]-p-tolyl-amine], the inhibition at 0.1 µM was found to be 63%. Turning to `CCCn1c(-c2ccc(Nc3ccc(Cl)cc3)c(Cl)c2)nc2cccc(Cl)c21` [Example 96, [2-Chloro-4-(7-chloro-1-propyl-1H-benzoimidazol-2-yl)-phenyl]-(4-chloro-phenyl)-amine], the inhibition at 0.1 µM turned out to be 85%. Same read-out and setting: for `CCCn1c(-c2ccc(Nc3ccc(OC)cc3)c(Cl)c2)nc2cccc(Cl)c21` [Example 97, [2-Chloro-4-(7-chloro-1-propyl-1H-benzoimidazol-2-yl)-phenyl]-(4-methoxy-phenyl)-amine] the value was 98%; for `CCCn1c(-c2ccc(Nc3ccc(C)nc3)c(Cl)c2)nc2cccc(Cl)c21` [Example 98, [2-Chloro-4-(7-chloro-1-propyl-1H-benzoimidazol-2-yl)-phenyl]-(6-methyl-pyridin-3-yl)-amine], 103%.
